Consider 12 compounds from patent publication US10800741B2 (ANCUREALL PHARMACEUTICAL (SHANGHAI) CO., LTD., priority 2017, dated 2020).

As a reminder, the inhibition is the share of the control response that was lost under treatment.

The subject of assay [1] is human non-small cell lung cancer cell line NCI-H1299 (NRAS Q61K mutation). Put plainly: Growth inhibition in combination with MEK1/2 inhibitor Trametinib, NCI-H1299 (NRAS Q61K mutation). The following applies: Homo sapiens, NCI-H1299, 120 h, 5 days, read-out: cell growth inhibition (percentage). The class given is cell-based. How it is done:
(§1) Test Example 5 Synergistic Inhibition Effect of the Present Compounds in Combination with MEK1/2 Inhibitor on the Growth of RAS Mutant Tumor Cells In Vitro
(§2) The cell culture, drug treatment and MTT assay of human intestinal cancer cell line HCT116 (KRAS G13D mutation) and human non-small cell lung cancer cell line NCI-H1299 (NRAS Q61K mutation) were performed according to the method of test example 1. Cells were treated with the MEK1/2 inhibitor Trametinib at 25 nM, 2.5 nM and 0.25 nM alone or in combination with compound 66 or 125 of the present invention (5 days).

The test system of assay [2] is human intestinal cancer cell line HCT116 (KRAS G13D mutation). Put plainly: Growth inhibition in combination with MEK1/2 inhibitor Trametinib, HCT116 (KRAS G13D mutation). To be noted: Homo sapiens, HCT-116, 120 h, 5 days, read-out: cell growth inhibition (percentage). It counts as cell-based. How it is done:
as §1, §2

The subject of the next assay is H1581 (FGFR1 amp). Kind of assay: In vitro growth inhibition of H1581 tumor cells (MTT/CCK8). It counts as cell-based, Human. To be noted: Homo sapiens, NCI-H1581; in vitro growth inhibition (or induction of apoptosis), cells cultured 3 to 5 days, MTT (CCK8); read-out: IC50 H1581 (FGFR1 amp).
In the next assay the test system is Kasumi-1 (KIT N822K). Put plainly: In vitro growth inhibition of Kasumi-1 tumor cells (MTT/CCK8). It counts as cell-based, Human. To be noted: Homo sapiens, Kasumi 1; in vitro growth inhibition (or induction of apoptosis), cells cultured 3 to 5 days, MTT (CCK8); read-out: IC50 Kasumi-1 (KIT N822K).
In the next assay the test system is Karpas 299 (NPM-ALK). Put plainly: In vitro growth inhibition of Karpas 299 tumor cells (MTT/CCK8). To be noted: Homo sapiens, KARPAS-299; in vitro growth inhibition (or induction of apoptosis), cells cultured 3 to 5 days, MTT (CCK8); read-out: IC50 Karpas 299 (NPM-ALK). The class given is cell-based, Human.
The subject of the next assay is MOLM-13 (FLT3-ITD). Kind of assay: In vitro growth inhibition of MOLM-13 tumor cells (MTT/CCK8). The class given is cell-based, Human. The following applies: Homo sapiens, MOLM-13; in vitro growth inhibition (or induction of apoptosis), cells cultured 3 to 5 days, MTT (CCK8); read-out: IC50 MOLM-13 (FLT3-ITD).
The test system of the next assay is Hep3B2 (FGFR3/4+++). Put plainly: In vitro growth inhibition of Hep3B2 tumor cells (MTT/CCK8). It counts as cell-based, Human. The following applies: Homo sapiens, Hep3B; in vitro growth inhibition (or induction of apoptosis), cells cultured 3 to 5 days, MTT (CCK8); read-out: IC50 Hep3B2 (FGFR3/4+++).
For another assay, the system named is KCL-22 (BCR-ABL). Put plainly: In vitro growth inhibition of KCL-22 tumor cells (MTT/CCK8). The class given is cell-based, Human. To be noted: Homo sapiens, KCL-22; in vitro growth inhibition (or induction of apoptosis), cells cultured 3 to 5 days, MTT (CCK8); read-out: IC50 KCL-22 (BCR-ABL).
The next assay concerns H1703 (PDGFRa amp). Kind of assay: In vitro growth inhibition of H1703 tumor cells (MTT/CCK8). To be noted: Homo sapiens, NCI-H1703; in vitro growth inhibition (or induction of apoptosis), cells cultured 3 to 5 days, MTT (CCK8); read-out: IC50 H1703 (PDGFRa amp). It counts as cell-based, Human.
A further assay deals with KATO III (FGFR2 amp). Put plainly: In vitro growth inhibition of KATO III tumor cells (MTT/CCK8). The class given is cell-based, Human. To be noted: Homo sapiens, KATO III; in vitro growth inhibition (or induction of apoptosis), cells cultured 3 to 5 days, MTT (CCK8); read-out: IC50 KATO III (FGFR2 amp).

The structures appear in SMILES notation. A value given as a limit tells only on which side of the number the result lay.

For the compound `CC(=O)Nc1cccc(-n2c(=O)n(C3CC3)c(=O)c3c(Nc4ccc(I)cc4F)n(C)c(=O)c(C)c32)c1` [Trametinib, reference compound], the inhibition at 0.00025 µM in assay [1] (Trametinib 0.25 nM alone) was found to be 2.2%; in [2] (Trametinib 0.25 nM alone), 12.1%. The inhibition at 0.0025 µM worked out at 6.31% in [1] (Trametinib 2.5 nM alone) and 27.7% in [2] (Trametinib 2.5 nM alone). The inhibition at 0.025 µM was determined as 15.5% in [1] (Trametinib 25 nM alone) and 75.1% in [2] (Trametinib 25 nM alone).
In the case of `COc1cc2nccc(Oc3ccc(NC(=O)Nc4cc(C(C)(C)C)on4)c(Cl)c3)c2cc1NC(=O)C1CCCC1` [Compound 23, cyclopentane carboxylic acid (4-{4-[3-(5-tert-butyl-isoxazol-3-yl)-ureido]-3-chloro-phenoxy}-7-methoxyquinolin-6-yl)-amide], the IC50 was 227 nM with H1581 (FGFR1 amp); 547 nM in the assay with Kasumi-1 (KIT N822K); greater than 1000 nM in the assay on Karpas 299 (NPM-ALK); 94.9 nM in the assay with MOLM-13 (FLT3-ITD); 214 nM in the assay on Hep3B2 (FGFR3/4+++); 436 nM in the assay on KCL-22 (BCR-ABL). Besides, the results for the IC50 in the assay on H1703 (PDGFRa amp) and in the assay with KATO III (FGFR2 amp) were 420 nM and 10.5 nM, respectively.
In the case of `COc1cc2nccc(Oc3ccc(NC(=O)Nc4cc(C(C)(C)C)on4)c(Cl)c3)c2cc1C(N)=O` [Compound 2, 4-{4-[3-(5-tert-butyl-isoxazol-3-yl)-ureido]-3-chloro-phenoxy}-7-methoxyquinolin-6-carboxamide], the IC50 with H1581 (FGFR1 amp) was determined as 3.35 nM; in the assay with Kasumi-1 (KIT N822K), 26.1 nM; in the assay with Karpas 299 (NPM-ALK), 587 nM; in the assay with MOLM-13 (FLT3-ITD) it was 6.49 nM; in the assay on Hep3B2 (FGFR3/4+++) it was 25.6 nM; in the assay with KCL-22 (BCR-ABL), 7.58 nM. Besides, the IC50 in the assay with H1703 (PDGFRa amp) is 7.9 nM; in the assay with KATO III (FGFR2 amp) it was 0.51 nM.
As to `COc1cc2nccc(Oc3ccc(NC(=O)Nc4cc(C(C)(C)C)n[nH]4)c(Cl)c3)c2cc1NC(=O)C1CCCC1` [Compound 65, cyclopentane carboxylic acid (4-{4-[3-(5-tert-butyl-2H-pyrazol-3-yl)-ureido]-3-chloro-phenoxy}-7-methoxy-quinolin-6-yl)-amide], the IC50 is 218 nM in the assay with H1581 (FGFR1 amp); 568 nM in the assay on Kasumi-1 (KIT N822K); greater than 1000 nM in the assay on Karpas 299 (NPM-ALK); 72 nM with MOLM-13 (FLT3-ITD); 160 nM in the assay with Hep3B2 (FGFR3/4+++); 163 nM with KCL-22 (BCR-ABL). The IC50 is 247 nM in the assay with H1703 (PDGFRa amp) and 11 nM in the assay on KATO III (FGFR2 amp).
Regarding `CCc1cc(NC(=O)Nc2cc(C(C)(C)C)n[nH]2)ccc1Oc1ccnc2cc(OC)c(C(N)=O)cc12` [Compound 106, 4-{4-[3-(5-tert-butyl-2H-pyrazol-3-yl)-ureido]-2-ethyl-phenoxy}-7-methoxy-quinolin-6-carboxamide], the IC50 with H1581 (FGFR1 amp) was 168 nM; in the assay with Kasumi-1 (KIT N822K), 176 nM; in the assay on Karpas 299 (NPM-ALK), 380 nM; in the assay on MOLM-13 (FLT3-ITD) it was 9.37 nM; in the assay with Hep3B2 (FGFR3/4+++) it was greater than 1000 nM; in the assay with KCL-22 (BCR-ABL), 115 nM. Also, the IC50 with H1703 (PDGFRa amp) stood at 120 nM; with KATO III (FGFR2 amp), 46.7 nM.
In the case of `COc1cc(Oc2ccnc3cc(OC)c(C(N)=O)cc23)ccc1NC(=O)n1nc(C(C)(C)C)cc1N` [Compound 73, 4-{4-[(5-amino-3-tert-butyl-pyrazol-1-carbonyl)-amino]-3-methoxy-phenoxy}-7-methoxyquinolin-6-carboxamide], the IC50 with H1581 (FGFR1 amp) was 138 nM; in the assay on Kasumi-1 (KIT N822K), 129 nM; with Karpas 299 (NPM-ALK) it was 88.5 nM; with MOLM-13 (FLT3-ITD), 197 nM; in the assay on Hep3B2 (FGFR3/4+++), 288 nM; with KCL-22 (BCR-ABL) it was 80.6 nM. The IC50 in the assay on H1703 (PDGFRa amp) stood at 222 nM; in the assay with KATO III (FGFR2 amp), 265 nM.
Regarding `COc1cc2nccc(Oc3ccc(NC(=O)Nc4cc(C(C)(C)C)on4)c(Br)c3)c2cc1C(N)=O` [Compound 3, 4-{3-bromo-4-[3-(5-tert-butyl-isoxazol-3-yl)-ureido]-phenoxy}-7-methoxyquinolin-6-carboxamide], the IC50 worked out at 6.87 nM in the assay on H1581 (FGFR1 amp); 27.8 nM in the assay on Kasumi-1 (KIT N822K); 725 nM in the assay on Karpas 299 (NPM-ALK); 35.4 nM in the assay on MOLM-13 (FLT3-ITD); 27.4 nM with Hep3B2 (FGFR3/4+++); 14 nM with KCL-22 (BCR-ABL). The IC50 with H1703 (PDGFRa amp) is 16.6 nM; with KATO III (FGFR2 amp), 1.46 nM.
Regarding `CN(C)CCOc1cc2nccc(Oc3ccc(NC(=O)Nc4cc(C(C)(C)C)n[nH]4)c(Cl)c3)c2cc1C(N)=O` [Compound 83], the IC50 in the assay with H1581 (FGFR1 amp) is 92.9 nM; with Kasumi-1 (KIT N822K), 260 nM; with Karpas 299 (NPM-ALK), 851 nM; with MOLM-13 (FLT3-ITD), 15.3 nM; in the assay on Hep3B2 (FGFR3/4+++), 150 nM; in the assay on KCL-22 (BCR-ABL), 190 nM. In addition, the IC50 in the assay on H1703 (PDGFRa amp) was 59.5 nM; in the assay with KATO III (FGFR2 amp), 5.94 nM.
`CNC(=O)c1cc2c(Oc3ccc(NC(=O)N4CCN(C)CC4)c(Cl)c3Cl)ccnc2cc1OCCOC` [Compound 75, 4-{2,3-dichloro-4-[(4-methyl-piperazin-1-carbonyl)-amino]-phenoxy}-7-(2-methoxy-ethoxy)-quinolin-6-carboxylic acid methylamide]: the IC50 in the assay on H1581 (FGFR1 amp), in the assay with Kasumi-1 (KIT N822K), with Karpas 299 (NPM-ALK), in the assay on MOLM-13 (FLT3-ITD), in the assay with Hep3B2 (FGFR3/4+++) and with KCL-22 (BCR-ABL) was greater than 1000 nM in each case. The IC50 with H1703 (PDGFRa amp) and in the assay on KATO III (FGFR2 amp) was greater than 1000 nM each time.
For `COc1cc2nccc(Oc3ccc(NC(=O)Nc4cc(C(C)(C)C)nn4C)c(Cl)c3)c2cc1C(N)=O` [Compound 26, 4-{4-[3-(5-tert-butyl-2-methyl-2H-pyrazol-3-yl)-ureido]-3-chloro-phenoxy}-7-methoxyquinolin-6-carboxamide], the IC50 came to 9.78 nM in the assay with H1581 (FGFR1 amp); 16.9 nM with Kasumi-1 (KIT N822K); 524 nM with Karpas 299 (NPM-ALK); 1.35 nM in the assay on MOLM-13 (FLT3-ITD); 10.9 nM with Hep3B2 (FGFR3/4+++); 5.16 nM in the assay with KCL-22 (BCR-ABL). Also, the IC50 was determined as 8.2 nM with H1703 (PDGFRa amp) and 0.07 nM in the assay with KATO III (FGFR2 amp).
As to `COc1cc2nccc(Oc3ccc(NC(=O)Nc4cc(C(C)(C)C)on4)c(C(F)(F)F)c3)c2cc1C(N)=O` [Compound 4], the IC50 was determined as 13.2 nM with H1581 (FGFR1 amp); 14.5 nM in the assay on Kasumi-1 (KIT N822K); 756 nM with Karpas 299 (NPM-ALK); 122 nM in the assay on MOLM-13 (FLT3-ITD); 27.8 nM in the assay with Hep3B2 (FGFR3/4+++); 10.4 nM in the assay with KCL-22 (BCR-ABL). Moreover, the values for the IC50 with H1703 (PDGFRa amp) and in the assay with KATO III (FGFR2 amp) were 21.8 nM and 2.93 nM, respectively.
For `COc1cc2nccc(Oc3ccc(NC(=O)Nc4cc(C(C)(C)C)on4)c(Cl)c3)c2cc1C#N` [Compound 19, 1-(5-tert-butyl-isoxazol-3-yl)-3-[2-chloro-4-(6-cyano-7-methoxy-quinolin-4-yloxy)-phenyl]-urea], the IC50 was 788 nM with H1581 (FGFR1 amp); 131 nM with Kasumi-1 (KIT N822K); greater than 1000 nM in the assay with Karpas 299 (NPM-ALK); 632 nM in the assay with MOLM-13 (FLT3-ITD); greater than 1000 nM with Hep3B2 (FGFR3/4+++); 150 nM with KCL-22 (BCR-ABL). The IC50 in the assay on H1703 (PDGFRa amp) was found to be 172 nM; with KATO III (FGFR2 amp), 46.8 nM.
